The record followed here is the supplement of paper PMC10307832.

Common to all, as to assay: relative viability (nuclei count vs DMSO), 5 days (fraction); higher = more cells survive
Compound in assay [1]: CCN(CCO)CCCC(C)Nc1ccnc2cc(Cl)ccc12 [Hydroxychloroquine] + CC(=O)c1c(C)c2cnc(Nc3ccc(N4CCNCC4)cn3)nc2n(C2CCCC2)c1=O [Palbociclib] (partner 0.5 µM)
The gist of the method:
(§1)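 Relative viability is defined as nuclei in treated wells over nuclei in vehicle wells. Duplicate plates were run and medians reported. Lung cancer cell lines in 1536-well plates were dosed by pin tool one day after seeding, with one drug or with a fixed anchor-drug dose plus five library-drug doses (not always all listed) in √10 steps, and nuclei were counted after 5 days.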

Compound in assay [2]: CCN(CCO)CCCC(C)Nc1ccnc2cc(Cl)ccc12 [Hydroxychloroquine] + C[C@@H](Oc1cc(-c2cnn(C3CCNCC3)c2)cnc1N)c1c(Cl)ccc(F)c1Cl [Crizotinib] (partner 1 µM)
The gist of the method: as §1

Compound in assay [3]: CCN(CCO)CCCC(C)Nc1ccnc2cc(Cl)ccc12 [Hydroxychloroquine] + NC(=O)Nc1cc(-c2cccc(F)c2)sc1C(=O)N[C@H]1CCCNC1 [AZD7762] (partner 0.2 µM)
The gist of the method: as §1

Compound in assay [4]: CCN(CCO)CCCC(C)Nc1ccnc2cc(Cl)ccc12 [Hydroxychloroquine] + O=C(CCCCCCC(=O)Nc1ccccc1)NO [Vorinostat] (partner 1 µM)
The gist of the method:
as §1

In the case of NCI-H3122, the relative viability was 0.208 in assay [1] (first compound 0.5 µM); 0.193 in assay [1] (first compound 1.581 µM); 0.194 in assay [1] (first compound 5 µM); 0.234 in assay [1] (first compound 15.81 µM); 0.21 in assay [1] (first compound 50 µM); 0.283 in assay [2] (first compound 0.5 µM). Moreover, the relative viability stood at 0.275 in assay [2] (first compound 1.581 µM); 0.275 in assay [2] (first compound 5 µM); 0.252 in assay [2] (first compound 15.81 µM); 0.279 in assay [2] (first compound 50 µM); 0.956 in assay [3] (first compound 0.5 µM); 0.976 in assay [3] (first compound 1.581 µM). Also, the relative viability in assay [3] (first compound 5 µM) was 1.06; in assay [3] (first compound 15.81 µM), 0.993; in assay [3] (first compound 50 µM), 1.13; in assay [4] (first compound 0.5 µM), 1.04; in assay [4] (first compound 1.581 µM), 1.13; in assay [4] (first compound 5 µM), 1.03. Moreover, the relative viability in assay [4] (first compound 15.81 µM) turned out to be 1.06; in assay [4] (first compound 50 µM) it was 1.19.

Regarding PC-3 [JPC-3], the relative viability in assay [1] (first compound 0.5 µM) came to 0.538; in assay [1] (first compound 1.581 µM), 0.576; in assay [1] (first compound 5 µM) it was 0.59; in assay [1] (first compound 15.81 µM) it was 0.561; in assay [1] (first compound 50 µM), 0.511; in assay [2] (first compound 0.5 µM), 0.999. Moreover, the relative viability was found to be 1 in assay [2] (first compound 1.581 µM); 1.06 in assay [2] (first compound 5 µM); 0.98 in assay [2] (first compound 15.81 µM); 1.16 in assay [2] (first compound 50 µM); 0.905 in assay [3] (first compound 0.5 µM); 0.882 in assay [3] (first compound 1.581 µM). Further, the relative viability was 0.652 in assay [3] (first compound 5 µM); 0.727 in assay [3] (first compound 15.81 µM); 0.774 in assay [3] (first compound 50 µM); 0.918 in assay [4] (first compound 0.5 µM); 0.847 in assay [4] (first compound 1.581 µM); 0.652 in assay [4] (first compound 5 µM). The relative viability was found to be 0.737 in assay [4] (first compound 15.81 µM) and 0.782 in assay [4] (first compound 50 µM).

In the case of PC-14, the relative viability in assay [1] (first compound 0.5 µM) came to 0.481; in assay [1] (first compound 1.581 µM) it was 0.545; in assay [1] (first compound 5 µM), 0.535; in assay [1] (first compound 15.81 µM) it was 0.554; in assay [1] (first compound 50 µM), 0.394; in assay [2] (first compound 0.5 µM), 0.856. Also, the relative viability was determined as 0.917 in assay [2] (first compound 1.581 µM); 0.919 in assay [2] (first compound 5 µM); 0.907 in assay [2] (first compound 15.81 µM); 0.916 in assay [2] (first compound 50 µM); 0.3 in assay [3] (first compound 0.5 µM); 0.459 in assay [3] (first compound 1.581 µM). The relative viability came out at 0.31 in assay [3] (first compound 5 µM); 0.302 in assay [3] (first compound 15.81 µM); 0.406 in assay [3] (first compound 50 µM); 0.672 in assay [4] (first compound 0.5 µM); 0.583 in assay [4] (first compound 1.581 µM); 0.753 in assay [4] (first compound 5 µM). Besides, the relative viability in assay [4] (first compound 15.81 µM) stood at 0.687; in assay [4] (first compound 50 µM) it was 0.781.

On to RERF-LC-KJ, for which the relative viability in assay [1] (first compound 0.5 µM) was determined as 0.838; in assay [1] (first compound 1.581 µM), 1.16; in assay [1] (first compound 5 µM) it was 1.03; in assay [1] (first compound 15.81 µM), 1.12; in assay [1] (first compound 50 µM), 1.06; in assay [2] (first compound 0.5 µM), 0.942. Besides, the relative viability in assay [2] (first compound 1.581 µM) was 0.785; in assay [2] (first compound 5 µM) it was 0.786; in assay [2] (first compound 15.81 µM), 0.848; in assay [2] (first compound 50 µM) it was 0.81; in assay [3] (first compound 0.5 µM), 0.959; in assay [3] (first compound 1.581 µM) it was 0.961. Also, the relative viability was found to be 1.01 in assay [3] (first compound 5 µM); 0.91 in assay [3] (first compound 15.81 µM); 1.08 in assay [3] (first compound 50 µM); 0.696 in assay [4] (first compound 0.5 µM); 0.607 in assay [4] (first compound 1.581 µM); 0.631 in assay [4] (first compound 5 µM). Further, the relative viability stood at 0.692 in assay [4] (first compound 15.81 µM) and 0.677 in assay [4] (first compound 50 µM).
